How the values were obtained:
Mus musculus [1] = experiment: Antinociceptive activity in iv dosed ICR mouse assessed as increase of tail flick latency after 20 to 60 mins by tail flick latency test; format: functional, organism-based
[2] = Aqueous solubility of the compound in phosphate buffered saline at pH 7 by shake-flask method; format: physicochemical
[3] = Aqueous solubility of the compound in citrate buffer at pH 5 by shake-flask method; format: physicochemical
Cannabinoid receptor 2 = Cannabinoid receptor 2 (Homo sapiens, UniProt P34972); experiment: Displacement of [3H]-CP55940 from human cannabinoid CB2 receptor expressed in Sf9 insect cells after 70 mins by scintillation counting
Homo sapiens [4] = species: Homo sapiens; experiment: Selectivity ratio of Ki for human ERG to Ki for human cannabinoid CB1 receptor
Homo sapiens [5] = species: Homo sapiens; experiment: Selectivity ratio of Ki for human ERG to Ki for human cannabinoid CB2 receptor
[6] = Intrinsic clearance in human liver microsomes; format: ADME; settings: read-out: CLH
[7] = Intrinsic clearance in mouse liver microsomes; format: ADME; settings: read-out: CLH
[8] = Cmax in ICR mouse plasma at 3 umol/kg, iv; format: ADME, cell-free; design: dose 3 umol/kg, route intravenous
[9] = AUC in ICR mouse plasma at 3 umol/kg, iv; format: ADME, cell-free
[10] = Clearance in ICR mouse plasma at 3 umol/kg, iv; format: ADME, cell-free
[11] = Elimination half life in ICR mouse plasma at 3 umol/kg, iv; format: ADME, cell-free; settings: read-out: beta t1/2 (converted)
[12] = Volume of distribution at steady state in ICR mouse plasma at 3 umol/kg, iv; format: ADME, cell-free; settings: read-out: Vdss
[13] = Cmax in ICR mouse brain at 3 umol/kg, iv; format: ADME, tissue-based; design: dose 3 umol/kg, route intravenous
[14] = Tmax in ICR mouse brain at 3 umol/kg, iv; format: ADME, tissue-based
Brain = experiment: AUC (0 to 1 hr) in ICR mouse brain at 3 umol/kg, iv; format: ADME, tissue-based; design: time < 1 hr, dose 3 umol/kg, route intravenous; settings: in vivo
[15] = Ratio of Cmax in brain to plasma in ICR mouse at 3 umol/kg, iv; format: ADME, cell-free; settings: brain and plasma, read-out: BPR
[16] = Tmax in ICR mouse plasma at 3 umol/kg, iv; format: ADME, cell-free
Mus musculus [17] = experiment: Antinociceptive activity in ICR mouse assessed as increase of tail flick latency at 1 umol/kg, iv after 20 to 60 mins by tail flick latency test relative to control; format: functional
Mus musculus [18] = experiment: Antinociceptive activity in ICR mouse assessed as increase of tail flick latency at 0.1 umol/kg, iv after 20 to 60 mins by tail flick latency test relative to control; format: functional
Mus musculus [19] = experiment: Antinociceptive activity in ICR mouse assessed as increase of tail flick latency at 0.3 umol/kg, iv after 20 to 60 mins by tail flick latency test relative to control; format: functional
Mus musculus [20] = experiment: Antinociceptive activity in iv dosed ICR mouse assessed as time taken for tail flick latency to return to within mean plus two standard deviations of baseline value following twice ED50 dose by tail flick latency test; format: functional
Mus musculus [21] = experiment: Antinociceptive activity in iv dosed ICR mouse assessed as inhibition of time spent licking formalin injected paw after 5 to 30 mins; format: functional, organism-based
Mus musculus [22] = experiment: Antinociceptive activity in ICR mouse assessed as inhibition of time spent licking formalin injected paw at 0.01 umol/kg, iv after 5 to 10 mins relative to control; format: functional
Mus musculus [23] = experiment: Antinociceptive activity in ICR mouse assessed as inhibition of time spent licking formalin injected paw at 0.03 umol/kg, iv after 5 to 10 mins relative to control; format: functional
Mus musculus [24] = experiment: Antinociceptive activity in ICR mouse assessed as inhibition of time spent licking formalin injected paw at 0.1 umol/kg, iv after 5 to 10 mins relative to control; format: functional
Mus musculus [25] = experiment: Antinociceptive activity in ICR mouse assessed as inhibition of time spent licking formalin injected paw at 0.3 umol/kg, iv after 5 to 10 mins relative to control; format: functional
Mus musculus [26] = experiment: Antinociceptive activity in ICR mouse assessed as inhibition of time spent licking formalin injected paw at 0.01 umol/kg, iv after 20 to 30 mins relative to control; format: functional
Mus musculus [27] = experiment: Antinociceptive activity in ICR mouse assessed as inhibition of time spent licking formalin injected paw at 0.03 umol/kg, iv after 20 to 30 mins relative to control; format: functional
Mus musculus [28] = experiment: Antinociceptive activity in ICR mouse assessed as inhibition of time spent licking formalin injected paw at 0.1 umol/kg, iv after 20 to 30 mins relative to control; format: functional
Mus musculus [29] = experiment: Antinociceptive activity in ICR mouse assessed as inhibition of time spent licking formalin injected paw at 0.3 umol/kg, iv after 20 to 30 mins relative to control; format: functional
Cannabinoid receptor 1 [30] = molecular target: T1, Cannabinoid receptor 1 (Homo sapiens, UniProt P21554); experiment: biochemical
Cannabinoid receptor 1 [31] = molecular target: T1, Cannabinoid receptor 1
Description: Agonist activity at human cannabinoid CB1 receptor expressed in CHO cells co-expressing AP-1 response element after 5 hrs by luciferase reporter gene assay

Mus musculus [32] = experiment: Antinociceptive activity in ICR mouse assessed as increase of tail flick latency at 0.2 umol/kg, iv after 20 to 60 mins by tail flick latency test relative to control; format: functional
[33] = Aqueous solubility of the compound in phosphate buffered saline at pH 6.9 by shake-flask method; format: physicochemical
[34] = Aqueous solubility of the compound in citrate buffer at pH 4.9 by shake-flask method; format: physicochemical
Mus musculus [35] = experiment: Antinociceptive activity in ICR mouse assessed as increase of tail flick latency at 0.4 umol/kg, iv after 20 to 60 mins by tail flick latency test relative to control; format: functional
[36] = Aqueous solubility of the compound in phosphate buffered saline at pH 7.1 by shake-flask method; format: physicochemical

T1 sequence (P21554 whole entry): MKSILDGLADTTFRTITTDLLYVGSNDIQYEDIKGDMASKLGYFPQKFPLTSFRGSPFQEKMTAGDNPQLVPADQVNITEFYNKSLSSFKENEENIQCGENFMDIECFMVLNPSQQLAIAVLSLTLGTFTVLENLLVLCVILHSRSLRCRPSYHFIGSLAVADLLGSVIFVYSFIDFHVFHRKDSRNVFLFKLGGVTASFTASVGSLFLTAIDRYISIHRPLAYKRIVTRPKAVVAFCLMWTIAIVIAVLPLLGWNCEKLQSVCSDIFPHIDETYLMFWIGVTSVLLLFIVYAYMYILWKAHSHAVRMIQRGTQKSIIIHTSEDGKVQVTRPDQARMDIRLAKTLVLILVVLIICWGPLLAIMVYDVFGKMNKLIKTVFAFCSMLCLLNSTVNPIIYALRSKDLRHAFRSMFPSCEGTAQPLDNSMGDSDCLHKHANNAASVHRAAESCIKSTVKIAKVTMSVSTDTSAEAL
Cannabinoid receptor 2, sequence (P34972 whole entry): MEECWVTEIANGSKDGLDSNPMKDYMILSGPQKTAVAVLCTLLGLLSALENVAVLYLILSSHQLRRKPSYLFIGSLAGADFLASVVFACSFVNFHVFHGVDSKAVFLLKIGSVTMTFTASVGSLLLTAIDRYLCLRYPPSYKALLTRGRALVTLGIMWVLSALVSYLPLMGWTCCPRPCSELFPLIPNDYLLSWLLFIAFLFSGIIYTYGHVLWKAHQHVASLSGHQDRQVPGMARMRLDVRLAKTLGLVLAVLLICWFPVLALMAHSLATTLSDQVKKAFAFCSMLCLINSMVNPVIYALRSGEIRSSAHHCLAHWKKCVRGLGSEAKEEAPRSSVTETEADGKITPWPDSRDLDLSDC

SMILES: COc1cccc2c(C(=O)N3C[C@@H](C)N(C)[C@@H](C)C3)cn(CC3CCCCC3)c12.Cl
- Activity (Mus musculus [1]): Dose-dependent effect
- solubility thermodynamic [2]: 12 µg/mL
- solubility thermodynamic [3]: > 4000 µg/mL
- Ki (Cannabinoid receptor 2): 0.794 nM
- Ratio Ki (Homo sapiens [4]): > 100
- Ratio Ki (Homo sapiens [5]): > 100
- microsomal CLint [6]: > 270 µL/min/mg
- microsomal CLint [7]: > 270 µL/min/mg
- Cmax [8]: 593 ng/mL
- AUC [9]: 253 ng·h/mL
- clearance [10]: 77.4 mL/min/kg
- half-life [11]: 19.2 min
- Vd [12]: 2 L/kg
- Cmax [13]: 1620 ng/g
- Tmax [14]: 3 min
- AUC (Brain): 616 ng·h/g
- Kp [15]: 2.7
- Tmax [16]: 3 min
- MPE (Mus musculus [17]): 100%
- MPE (Mus musculus [18]): 14.5%
- MPE (Mus musculus [19]): 72.3%
- Time (Mus musculus [20]): 50 min
- inhibition (Mus musculus [21]): Dose-dependent effect
- inhibition in vivo at 0.01 µmol/kg (Mus musculus [22]): 16.4%
- inhibition in vivo at 0.03 µmol/kg (Mus musculus [23]): 49.5%
- inhibition in vivo at 0.1 µmol/kg (Mus musculus [24]): 84%
- inhibition in vivo at 0.3 µmol/kg (Mus musculus [25]): 97.8%
- inhibition in vivo at 0.01 µmol/kg (Mus musculus [26]): 7.8%
- inhibition in vivo at 0.03 µmol/kg (Mus musculus [27]): 86.9%
- inhibition in vivo at 0.1 µmol/kg (Mus musculus [28]): 93.3%
- inhibition in vivo at 0.3 µmol/kg (Mus musculus [29]): 99.8%
- Ki (Cannabinoid receptor 1 [30]): 1.26 nM

SMILES: CCN1CCN(C(=O)c2cn(CC3CCCCC3)c3c(Br)cccc23)CC1
- EC50 (Cannabinoid receptor 1 [31]): 794 nM

SMILES: O=C(Cc1ccccc1)N/N=C1\C(=O)N(CC2CCCCC2)c2cc(OCCN3CCOCC3)ccc21
- EC50 (Cannabinoid receptor 1 [31]): 63.1 nM

SMILES: CN1CCN(C(=O)c2cn(CC3CCCCC3)c3ccccc23)CC1
- EC50 (Cannabinoid receptor 1 [31]): 501 nM

SMILES: COc1cccc2c(C(=O)N3CCN(C)[C@@H](C)C3)cn(CC3CCCCC3)c12.Cl
- MPE (Mus musculus [32]): 18.3%
- Activity (Mus musculus [1]): Dose-dependent effect
- solubility thermodynamic [33]: 129 µg/mL
- solubility thermodynamic [34]: 2810 µg/mL
- Ki (Cannabinoid receptor 2): 1.58 nM
- Ratio Ki (Homo sapiens [4]): > 100
- Ratio Ki (Homo sapiens [5]): > 100
- microsomal CLint [6]: > 270 µL/min/mg
- microsomal CLint [7]: > 270 µL/min/mg
- Cmax [8]: 620 ng/mL
- AUC [9]: 248 ng·h/mL
- clearance [10]: 77.3 mL/min/kg
- half-life [11]: 24.6 min
- Vd [12]: 2.1 L/kg
- Cmax [13]: 2460 ng/g
- Tmax [14]: 10.2 min
- AUC (Brain): 804 ng·h/g
- Kp [15]: 4
- Tmax [16]: 3 min
- MPE (Mus musculus [35]): 50.1%
- MPE (Mus musculus [17]): 100%
- Time (Mus musculus [20]): 90 min
- inhibition (Mus musculus [21]): Dose-dependent effect
- inhibition in vivo at 0.01 µmol/kg (Mus musculus [22]): 25.7%
- inhibition in vivo at 0.03 µmol/kg (Mus musculus [23]): 66%
- inhibition in vivo at 0.1 µmol/kg (Mus musculus [24]): 99%
- inhibition in vivo at 0.3 µmol/kg (Mus musculus [25]): 100%
- inhibition in vivo at 0.01 µmol/kg (Mus musculus [26]): 49.2%
- inhibition in vivo at 0.03 µmol/kg (Mus musculus [27]): 79.7%
- inhibition in vivo at 0.1 µmol/kg (Mus musculus [28]): 93.4%
- inhibition in vivo at 0.3 µmol/kg (Mus musculus [29]): 100%
- Ki (Cannabinoid receptor 1 [30]): 1.26 nM

SMILES: CCN1CCN(C(=O)c2cn(CC3CCCCCC3)c3c(OC)cccc23)CC1
- EC50 (Cannabinoid receptor 1 [31]): 794 nM

SMILES: CCN1CCN(C(=O)c2cn(CC3CCCCC3)c3c(OC)cccc23)C[C@@H]1C.Cl
- solubility thermodynamic [36]: 37 µg/mL
- solubility thermodynamic [3]: > 4000 µg/mL
- EC50 (Cannabinoid receptor 1 [31]): 39.8 nM

SMILES: CN(C)CCN(C)C(=O)c1cn(CC2CCCCC2)c2ccccc12
- EC50 (Cannabinoid receptor 1 [31]): > 3160 nM

SMILES: CCN1CCN(C(=O)c2cn(CC3CCCCC3)c3ccccc23)CC1
- EC50 (Cannabinoid receptor 1 [31]): 316 nM

SMILES: CCN1CCN(C(=O)c2cn(CC3CCCCC3)c3cc(Cl)ccc23)CC1
- EC50 (Cannabinoid receptor 1 [31]): 1580 nM

SMILES: CCN1CCN(C(=O)c2cn(Cc3ccccc3)c3c(OC)cccc23)CC1
- EC50 (Cannabinoid receptor 1 [31]): > 3160 nM

SMILES: CCN1CCN(C(=O)c2cn(CC3CCCCC3)c3c(OC)cccc23)CC1(C)C.Cl
- solubility thermodynamic [36]: 181 µg/mL
- solubility thermodynamic [3]: 3830 µg/mL
- EC50 (Cannabinoid receptor 1 [31]): 126 nM

SMILES: Cc1cccc2c1c(C(=O)N1CCN(C)CC1)cn2CC1CCCCC1
- EC50 (Cannabinoid receptor 1 [31]): > 3160 nM

SMILES: CCN1CCN(C(=O)c2cn(CC3CCCCC3)c3cccc(F)c23)CC1
- EC50 (Cannabinoid receptor 1 [31]): 251 nM

SMILES: CN(C)CCNC(=O)c1cn(CC2CCCCC2)c2ccccc12
- EC50 (Cannabinoid receptor 1 [31]): > 3160 nM

SMILES: COc1cccc2c(C(=O)N3CCN(C)C(C)(C)C3)cn(CC3CCCCC3)c12.Cl
- solubility thermodynamic [2]: 129 µg/mL
- solubility thermodynamic [3]: 2160 µg/mL
- EC50 (Cannabinoid receptor 1 [31]): 158 nM

SMILES: CCN1[C@H](C)CN(C(=O)c2cn(CC3CCCCC3)c3c(OC)cccc23)C[C@@H]1C.Cl
- solubility thermodynamic [2]: 9 µg/mL
- solubility thermodynamic [3]: > 4000 µg/mL

— ChEMBL document CHEMBL3390831, “Design, synthesis, and structureactivity relationships of indole-3-carboxamides as novel water soluble cannabinoid CB1 receptor agonists” (Medchemcomm, 2010)
